Laboratory results published in patent publication US20250270217A1, “IMIDAZ0[1,2-A]PYRIMIDINE-5(1 H)-ONES HAVING A COVALENT WARHEAD AT THE 3-POSITION AS WRN INHIBITORS” (Incyte Corporation, priority 2023, published 2025).
Counter-ions that a name gives are not always drawn.

How the values were obtained:
[1] = biological target: T1, WRN (Homo sapiens, UniProt Q14191); experiment: WRN ATPase activity assay (ADP-Glo); type: biochemical; settings: 1-hr pre-incubation with enzyme; 100 μM ATP, 25 nM forked dsDNA, 1 nM WRN; geometric mean of at least 2 replicates
T1 construct: A His-tagged construct of WRN (AA S2-S1235) was produced and used for the ATPase assay; His; made in house; host or cells: Sf9 insect cells (baculovirus)
Protocol: Compounds of the Examples were tested for WRN ATPase activity. WRN ATPase activity catalyzes ATP hydrolysis to produce ADP and phosphate. DNA encoding the target protein, 6×HIS-TEV-WRN-517-945, was produced, cloned and transfected as detailed in Example D. The amount of ADP produced was measured using ADP-Glo™ Kinase Assay kit from Promega Corporation in a Greiner white regular volume 384 wells assay plate (Greiner #781075). Data was normalized to a standard curve generated using various ADP concentrations and the corresponding luminescent signal intensities at each concentration. The assay conditions were optimized for enzyme concentration (WRN), substrate concentrations (ATP & dsDNA), and the linearity of the ATPase reaction, in the following assay buffer: 50 mM Tris-HCl, pH-7.5, 2 mM MgCl2, 50 mM NaCl, 1 mM EGTA, 0.01% P-20, 0.05% BSA, and 2 mM DTT prepared with nuclease free water.
A serial dilution (1:3 scheme) of the compounds were prepared in neat DMSO, with 100 nL of the compounds dispensed in the 384 wells assay plate. An 1-hr pre-incubation of the compounds with enzyme was included. A His-tagged construct of WRN (AA S2-S1235) was produced and used for the ATPase assay. Maximum inhibition control wells were set up with the addition of only assay buffer, and no inhibition control wells were set up with neat DMSO without test compounds. The reaction was initiated by addition of 5 μL substrate mix (200 μM ultrapure ATP, and 50 nM dsDNA prepared in assay buffer) and incubated at 25° C. for 35 min. A forked dsDNA oligomer substrate was prepared by annealing equal amounts of oligo GPat-1 ([BHQ2][…]) and oligo GPat-2 ([…][TAM]) and was used as dsDNA substrate for WRN ATPase assay. A typical ATPase reaction consists of 25 nM forked dsDNA, 100 μM ATP, and 1 nM WRN prepared in assay buffer. The WRN ATPase reaction was stopped by the addition of 5 μL of ADP-Glo Reagent from ADP-Glo™ Kinase Assay kit and incubated for 40 min to deplete the unreacted ATP. Afterwards, 5 μL of Kinase Detection Reagent from the ADP-Glo™ Kinase Assay kit was added and incubated for 1 hr for the development of luminescence signal.
Luminesce signals were measured on BMG PHERAstar FSX using luminescence protocol. Data analysis was carried out using Genedata software following % of control normalization. Fitting parameters include dose response IC50, Hill slope (n), maximum inhibition (S∞), and minimum inhibition (S0). The reported IC50 values for compounds in this invention are the geometric means of at least 2 independent replicates.

[2] = biological target: T1, WRN; experiment: WRN Helicase activity assay (fluorescence DNA unwinding); type: biochemical; settings: 1-hr pre-incubation with enzyme; 100 μM ATP, 25 nM forked dsDNA, 1 nM WRN; geometric mean of at least 2 replicates
Protocol: Compounds of the examples were tested for WRN helicase activity. DNA encoding the target protein, 6×HIS-TEV-WRN-517-945, was produced, cloned and transfected as detailed in Example D. To determine the inhibitory properties of the compounds, a 384 wells plate-based Helicase assay was set up to measure the extent of DNA unwinding (Helicase) activity of WRN. The WRN Helicase assay was designed to measure increase in fluorescence signal using a fluorescence based, donor-quencher paired forked dsDNA oligomer substrate (custom synthesis from Sigma-Aldrich) prepared by annealing equal amounts of oligo GPat-1 ([BHQ2][…]) and oligo GPat-2 ([…][TAM]). Continuous measurement of fluorescent signal was used to optimize the buffer conditions, concentration of enzyme (WRN), concentration of substrates (ATP & dsDNA), and the linearity of the Helicase reaction. All solutions were prepared in the following assay buffer: 50 mM Tris-HCl, pH-7.5, 2 mM MgCl2, 50 mM NaCl, 1 mM EGTA, 0.01% P-20, 0.05% BSA, and 2 mM DTT prepared with nuclease free water.
A serial dilution (1:3 scheme) of the compounds was prepared in neat DMSO and 100 nL of the compounds was dispensed in the Greiner black low volume (Greiner #784076) 384 wells assay plate. An 1-hr pre-incubation of the compounds with enzyme was included. A His-tagged construct of WRN (AA S2-S1235) was produced and used for the ATPase assay. Maximum inhibition control wells were set up with the addition of only assay buffer, and no inhibition control wells were set up with neat DMSO without test compounds. The reaction was initiated by addition of 5 μL substrate mix (200 μM ultrapure ATP, and 50 nM dsDNA prepared in assay buffer) and incubated at 25° C. for 35 min. A typical Helicase reaction consists of 25 nM forked dsDNA, 100 μM ATP, and 1 nM WRN prepared in assay buffer. The WRN Helicase reaction was quenched by the addition of 5 μL ‘STOP’ solution containing 100 mM EDTA (final EDTA concentration 33.33 mM) prepared in assay buffer. The plates were read on BMG PHERAstar FSX using 540/590 module to measure an increase of fluorescence. Data analysis was carried out using the Genedata software following % of control normalization. Fitting parameters include dose response IC50, Hill slope (n), maximum inhibition (S∞), and minimum inhibition (S0). The reported IC50 values for compounds in this invention are the geometric means of at least 2 independent replicates.

T1 sequence (Q14191 2-1235): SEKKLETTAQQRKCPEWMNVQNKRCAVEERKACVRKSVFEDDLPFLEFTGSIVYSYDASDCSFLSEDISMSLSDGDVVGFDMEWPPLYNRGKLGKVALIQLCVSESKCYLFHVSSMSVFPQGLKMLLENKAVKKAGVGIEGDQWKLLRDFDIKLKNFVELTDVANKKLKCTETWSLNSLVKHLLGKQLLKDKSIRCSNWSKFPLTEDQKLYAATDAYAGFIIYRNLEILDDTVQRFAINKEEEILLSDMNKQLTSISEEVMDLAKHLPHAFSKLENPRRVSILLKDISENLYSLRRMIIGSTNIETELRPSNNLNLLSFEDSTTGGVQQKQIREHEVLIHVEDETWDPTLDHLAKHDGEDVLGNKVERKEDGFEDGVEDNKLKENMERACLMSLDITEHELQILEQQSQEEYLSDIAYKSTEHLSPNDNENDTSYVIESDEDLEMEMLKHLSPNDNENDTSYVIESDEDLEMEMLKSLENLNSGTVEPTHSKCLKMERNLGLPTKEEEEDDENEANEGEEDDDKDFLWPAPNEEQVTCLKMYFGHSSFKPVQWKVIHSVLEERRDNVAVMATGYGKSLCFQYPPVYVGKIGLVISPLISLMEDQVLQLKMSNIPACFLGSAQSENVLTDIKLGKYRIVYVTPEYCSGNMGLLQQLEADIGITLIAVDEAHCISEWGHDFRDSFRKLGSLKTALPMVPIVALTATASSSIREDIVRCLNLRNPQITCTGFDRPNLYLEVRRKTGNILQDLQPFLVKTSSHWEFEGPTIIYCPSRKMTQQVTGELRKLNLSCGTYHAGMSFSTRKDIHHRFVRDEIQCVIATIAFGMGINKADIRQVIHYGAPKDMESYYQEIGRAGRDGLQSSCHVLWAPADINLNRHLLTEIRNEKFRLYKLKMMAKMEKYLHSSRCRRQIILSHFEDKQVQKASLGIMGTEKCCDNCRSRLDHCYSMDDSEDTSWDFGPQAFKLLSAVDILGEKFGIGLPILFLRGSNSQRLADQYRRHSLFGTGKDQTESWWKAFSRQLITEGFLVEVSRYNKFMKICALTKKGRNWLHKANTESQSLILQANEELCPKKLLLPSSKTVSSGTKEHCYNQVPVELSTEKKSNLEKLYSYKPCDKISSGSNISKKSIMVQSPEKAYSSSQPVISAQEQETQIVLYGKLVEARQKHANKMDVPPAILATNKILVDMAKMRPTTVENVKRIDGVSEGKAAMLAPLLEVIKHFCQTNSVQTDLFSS

C=CC(=O)Nc1cc(C(=O)NC2CCOCC2)ccc1-c1c(CC)nc2n(CC(=O)Nc3ccc(C(F)(F)F)cc3)c(C)c(C)n2c1=O [Example 32, 3-Acrylamido-4-(7-ethyl-2,3-dimethyl-5-oxo-1-(2-oxo-2-((4-(trifluoromethyl)phenyl)amino)ethyl)-1,5-dihydroimidazo[1,2-a]pyrimidin-6-yl)-N-(tetrahydro-2H-pyran-4-yl)benzamide]
IC50 [1]: < 100 nM
IC50 [2]: < 100 nM

C=CC(=O)Nc1cc(C(=O)N[C@H]2CCCOC2)ccc1-c1c(CC)nc2n(CC(=O)Nc3ccc(C(F)(F)F)cc3)c(C)c(C)n2c1=O [Example 33, (S)-3-Acrylamido-4-(7-ethyl-2,3-dimethyl-5-oxo-1-(2-oxo-2-((4-(trifluoromethyl)phenyl)amino)ethyl)-1,5-dihydroimidazo[1,2-a]pyrimidin-6-yl)-N-(tetrahydro-2H-pyran-3-yl)benzamide]
IC50 [1]: < 100 nM
IC50 [2]: < 100 nM

C=CC(=O)Nc1cc(C(=O)NC2(CO)CC2)ccc1-c1c(CC)nc2n(CC(=O)Nc3ccc(C(F)(F)F)cc3)c(C)c(C)n2c1=O [Example 34, 3-Acrylamido-4-(7-ethyl-2,3-dimethyl-5-oxo-1-(2-oxo-2-((4-(trifluoromethyl)phenyl)amino)ethyl)-1,5-dihydroimidazo[1,2-a]pyrimidin-6-yl)-N-(1-(hydroxymethyl)cyclopropyl)benzamide]
IC50 [1]: < 100 nM
IC50 [2]: < 100 nM

C=CC(=O)Nc1cc(C(=O)N2CCOCC2)ccc1-c1c(CC)nc2n(CC(=O)Nc3ccc(C(F)(F)F)cc3)c(C)c(C)n2c1=O [Example 35, N-(2-(7-Ethyl-2,3-dimethyl-5-oxo-1-(2-oxo-2-((4-(trifluoromethyl)phenyl)amino)ethyl)-1,5-dihydroimidazo[1,2-a]pyrimidin-6-yl)-5-(morpholine-4-carbonyl)phenyl)acrylamide]
IC50 [1]: < 100 nM
IC50 [2]: < 100 nM

C=CC(=O)Nc1ccccc1-c1cn(CC(=O)Nc2ccc(C(F)(F)F)cc2)c2nc(CC)c(N3CCN(C(=O)c4ncccc4O)CC3)c(=O)n12 [Example 36, N-(2-(7-Ethyl-6-(4-(3-hydroxypicolinoyl)piperazin-1-yl)-5-oxo-1-(2-oxo-2-((4-(trifluoromethyl)phenyl)amino)ethyl)-1,5-dihydroimidazo[1,2-a]pyrimidin-3-yl)phenyl)acrylamide]
IC50 [1]: < 100 nM
IC50 [2]: < 100 nM

C=CC(=O)Nc1ccccc1-c1c(C)n(CC(=O)Nc2ccc(F)cc2)c2nc(CC)c(-c3ccccc3)c(=O)n12 [Example 37, N-(2-(7-Ethyl-1-(2-((4-fluorophenyl)amino)-2-oxoethyl)-2-methyl-5-oxo-6-phenyl-1,5-dihydroimidazo[1,2-a]pyrimidin-3-yl)phenyl)acrylamide]
IC50 [1]: < 100 nM
IC50 [2]: < 100 nM

C=CS(=O)(=O)Nc1ccccc1-c1c(C)n(CC(=O)Nc2ccc(F)cc2)c2nc(CC)c(-c3ccccc3)c(=O)n12 [Example 38, 2-(7-Ethyl-2-methyl-5-oxo-6-phenyl-3-(2-(vinylsulfonamido)phenyl)imidazo[1,2-a]pyrimidin-1(5H)-yl)-N-(4-fluorophenyl)acetamide]
IC50 [1]: < 100 nM
IC50 [2]: < 100 nM

C=CC(=O)Nc1ccccc1-c1c(C)n(CC(=O)Nc2ccc(C(F)(F)F)cc2)c2nc(CC)c(C)c(=O)n12 [Example 39, N-(2-(7-Ethyl-2,6-dimethyl-5-oxo-1-(2-oxo-2-((4-(trifluoromethyl)phenyl)amino)ethyl)-1,5-dihydroimidazo[1,2-a]pyrimidin-3-yl)phenyl)acrylamide]
IC50 [1]: 100 to 500 nM
IC50 [2]: 100 to 500 nM

C=CC(=O)Nc1ccccc1-c1c(C)n(CC(=O)Nc2ccc(C(F)(F)F)cc2)c2nc(CC)c(-c3ccc(C(=O)NCC)cc3)c(=O)n12 [Example 40, 4-(3-(2-Acrylamidophenyl)-7-ethyl-2-methyl-5-oxo-1-(2-oxo-2-((4-(trifluoromethyl)phenyl)amino)ethyl)-1,5-dihydroimidazo[1,2-a]pyrimidin-6-yl)-N-ethylbenzamide, trifluoroacetate salt]
IC50 [1]: < 100 nM
IC50 [2]: < 100 nM

C=CC(=O)Nc1ccccc1-c1c(C)n(CC(=O)Nc2ccc(C(F)(F)F)cc2)c2nc(CC)c(-c3ccc(C(=O)NC)nc3)c(=O)n12 [Example 41, 5-(3-(2-Acrylamidophenyl)-7-ethyl-2-methyl-5-oxo-1-(2-oxo-2-((4-(trifluoromethyl)phenyl)amino)ethyl)-1,5-dihydroimidazo[1,2-a]pyrimidin-6-yl)-N-methylpicolinamide, trifluoroacetate salt]
IC50 [1]: < 100 nM
IC50 [2]: < 100 nM

C=CC(=O)Nc1c(Cl)cccc1-c1c(CC)nc2n(CC(=O)Nc3ccc(F)cc3)c(C)c(C)n2c1=O [Example 42, N-(2-chloro-6-(7-ethyl-1-(2-((4-fluorophenyl)amino)-2-oxoethyl)-2,3-dimethyl-5-oxo-1,5-dihydroimidazo[1,2-a]pyrimidin-6-yl)phenyl)acrylamide]
IC50 [1]: < 100 nM
IC50 [2]: < 100 nM

C=CC(=O)Nc1c(Cl)cccc1-c1c(CC)nc2n(CC(=O)Nc3ccc(Cl)cc3)c(C)cn2c1=O [Example 43, N-(2-chloro-6-(1-(2-((4-chlorophenyl)amino)-2-oxoethyl)-7-ethyl-2-methyl-5-oxo-1,5-dihydroimidazo[1,2-a]pyrimidin-6-yl)phenyl)acrylamide]
IC50 [1]: < 100 nM
IC50 [2]: < 100 nM

C=CC(=O)Nc1c(Cl)cccc1-c1c(CC)nc2n(CC(=O)Nc3ccc(Cl)cc3Cl)c(C)cn2c1=O [Example 44, N-(2-chloro-6-(1-(2-((2,4-dichlorophenyl)amino)-2-oxoethyl)-7-ethyl-2-methyl-5-oxo-1,5-dihydroimidazo[1,2-a]pyrimidin-6-yl)phenyl)acrylamide]
IC50 [1]: < 100 nM
IC50 [2]: < 100 nM
